Tests used:
[1] = Interconversion of Forms H-1 and T1F-1/2 as a function of relative humidity; assay type: physicochemical; settings: solid state, FIG. 1
[2] = Crystal form in aqueous solution / suspension in water; assay type: physicochemical; settings: aqueous solutions / suspended in water

C=C[C@@H]1C[C@]1(NC(=O)[C@@H]1C[C@@H](Oc2ncc(OC)c3ccc(Cl)cc23)CN1C(=O)[C@@H](NC(=O)OC(C)(C)C)C(C)(C)C)C(=O)NS(=O)(=O)C1CC1 [Compound (I), N-(tert-butoxycarbonyl)-3-methyl-L-valyl-(4R)-4-((7-chloro-4-methoxy-1-isoquinolinyl)oxy)-N-((1R,2S)-1-((cyclopropylsulfonyl)carbamoyl)-2-vinylcyclopropyl)-L-prolinamide]
relative humidity at which Compound (I) exists as a mixture of H-1 and T1F-1/2 [1]: 15-45 % relative humidity | form stability in water [2]: exists as H-1

C=C[C@@H]1C[C@]1(NC(=O)[C@@H]1C[C@@H](Oc2ncc(OC)c3ccc(Cl)cc23)CN1C(=O)[C@@H](NC(=O)OC(C)(C)C)C(C)(C)C)C(=O)NS(=O)(=O)C1CC1 [Form H-1, N-(tert-butoxycarbonyl)-3-methyl-L-valyl-(4R)-4-((7-chloro-4-methoxy-1-isoquinolinyl)oxy)-N-((1R,2S)-1-((cyclopropylsulfonyl)carbamoyl)-2-vinylcyclopropyl)-L-prolinamide]
relative humidity at which Compound (I) exists as this crystalline form [1]: > 45 % relative humidity

C=C[C@@H]1C[C@]1(NC(=O)[C@@H]1C[C@@H](Oc2ncc(OC)c3ccc(Cl)cc23)CN1C(=O)[C@@H](NC(=O)OC(C)(C)C)C(C)(C)C)C(=O)NS(=O)(=O)C1CC1 [Form T1F-1/2, N-(tert-butoxycarbonyl)-3-methyl-L-valyl-(4R)-4-((7-chloro-4-methoxy-1-isoquinolinyl)oxy)-N-((1R,2S)-1-((cyclopropylsulfonyl)carbamoyl)-2-vinylcyclopropyl)-L-prolinamide]
relative humidity at which Compound (I) exists as this crystalline form [1]: < 15 % relative humidity | form stability in water [2]: rapidly converts to H-1

From patent US8202996B2, “Crystalline forms of N-(tert-butoxycarbonyl)-3-methyl-L-valyl-(4R)-4-((7-chloro-4-methoxy-1-isoquinolinyl)oxy)-N- ((1R,2S)-1-((cyclopropylsulfonyl)carbamoyl)-2-vinylcyclopropyl)-L-prolinamide” (Bristol-Myers Squibb Company, priority 2007, dated 2012)
